Test system: Clone No. 38 tumor
Experiment: Anti-tumor effect by short-term tissue assay in tumor-bearing mice (titled cytotoxic activity)
Format: in vivo
Details: mice with Clone No. 38 tumor; for OD (minimum dose of brine injection administered by peritoneal injection and causing activity): peritoneal injection in brine, dose raised in 1.5-fold steps to maximum tolerated dose; for Activity (necrosis of tumor cross section): peritoneal injection, short-term tissue assay
Protocol: Cytotoxic activity of the compounds represented by formula (I) was measured by the following method.
Clone No. 38 tumor was obtained from Mason Research Inc. and injected into experimental mice. […] Each dosage level was measured independently at least two times (commonly, three times). For each measurement, each group had five mice. The anti-tumor effect of the compounds was measured through short-term tissue assay.
OD refers to the minimum dose (mg/Kg) of brine injection administered by peritoneal injection and causing activity; ++ refers to >90% of cross section is necrotic.

| SMILES | OD (minimum dose of brine injection administered by peritoneal injection and causing activity) [mg/kg] | Activity (necrosis of tumor cross section) |
| --- | --- | --- |
| Cc1ccc2c(=O)c3cccc(CC(=O)O)c3oc2c1C [NO 1, 5,6-dimethyl xanthone-4-acetic acid] | 30 | ++ (>90% of cross section is necrotic) |
| Cc1cc(C)c2c(=O)c3cccc(CC(=O)O)c3oc2c1C [NO 4, 5,6,8-trimethylxanthone-4-acetic acid] | 30 | ++ (>90% of cross section is necrotic) |
| Cc1cc2c(=O)c3cccc(CC(=O)O)c3oc2c(C)c1C [NO 3, 5,6,7-trimethylxanthone-4-acetic acid] | 30 | ++ (>90% of cross section is necrotic) |
| Cc1cc(CC(=O)O)c2oc3c(C)c(C)ccc3c(=O)c2c1 [NO 2, 2,5,6-trimethyl xanthone-4-acetic acid] | 25 | ++ (>90% of cross section is necrotic) |

Source: patent publication US8350065B2, “5,6-dimethyl xanthone-4-acetic acid derivatives and method of preparing the same” (Grand Pharma (China) Co., Ltd., priority 2008, dated 2013)
